# ChEMBL document CHEMBL5131467, “Multivalent peptide dendrimers inhibit the fusion of viral-cellular membranes and the cellular NF-κB signaling pathway” (Eur J Med Chem, 2022)
# Where a SMILES comes first, the peptide text is derived from it. The star is where a group is joined. Acetyl(2-naphthyl) = O=C(Cc1ccc2ccccc2c1)*
# Experiments:
# [1] = Cytotoxicity against MDCK cells by CCK-8 assay; assay type: toxicity, cell-based, Canis lupus familiaris; settings: dog
# [2] = system: Influenza A virus; experiment: Antiviral activity against Influenza A virus (A/Puerto Rico/8/1934(H1N1)) infected in MDCK cells assessed as reduction in virus induced cytopathic effect after infection incubated for 1 hr by MTT assay; assay type: functional, organism-based
# [3] = system: Influenza A virus; experiment: Antiviral activity against Influenza A virus (A/Puerto Rico/8/1934(H1N1)) infected in MDCK cells assessed as reduction in virus induced cytopathic effect during infection incubated for 1 hr by MTT assay; assay type: functional, organism-based
# [4] = system: Influenza A virus; experiment: Antiviral activity against Influenza A virus (A/Puerto Rico/8/1934(H1N1)) infected in MDCK cells assessed as reduction in virus induced cytopathic effect pretreated with compound incubated for 1 hrs by MTT assay; assay type: functional, organism-based
# [5] = Selectivity index, ratio of CC50 for MDCK cells to IC50 antiviral activity against Influenza A virus (A/Puerto Rico/8/1934(H1N1)) infected in MDCK cells assessed as reduction in virus induced cytopathic effect pre-treated with virus; assay type: toxicity, cell-based; settings: dog, read-out: Selectivity Index
# [6] = Cytotoxicity against MDCK cells incubated for 1 hr by MTT assay; assay type: toxicity, cell-based, Canis lupus familiaris; settings: dog
# [7] = system: Influenza A virus; experiment: Antiviral activity against Influenza A virus (A/Puerto Rico/8/1934(H1N1)) infected in MDCK cells assessed as reduction in virus induced cytopathic effect pre-treated with virus followed by cell infection for 1 hr by MTT assay; assay type: functional, organism-based
# [8] = system: RAW264.7; experiment: Anti-inflammatory activity against mouse RAW264.7 cells assessed as reduction in LPS induced TNF alpha level at 5 ug/ml by ELISA method; assay type: functional; settings: dose 5 µg/ml
# [9] = system: Influenza A virus; experiment: Antiviral activity against Influenza A virus A/Aichi/2/68(H3N2) infected in MDCK cells incubated for 1 hr by MTT assay; assay type: functional, organism-based
# [10] = system: RAW264.7; experiment: Anti-inflammatory activity against mouse RAW264.7 cells assessed as reduction in Influenza A virus (A/Puerto Rico/8/1934(H1N1)) induced TNF alpha level at 1 ug/ml by ELISA method; assay type: functional; settings: dose 1 µg/ml
# [11] = system: RAW264.7; experiment: Anti-inflammatory activity against mouse RAW264.7 cells assessed as reduction in Influenza A virus (A/Puerto Rico/8/1934(H1N1)) induced TNF alpha level at 5 ug/ml by ELISA method; assay type: functional; settings: dose 5 µg/ml
# [12] = system: Influenza A virus; experiment: Antiviral activity against Influenza A virus 699(H3) clinical isolate infected in MDCK cells incubated for 1 hr by MTT assay; assay type: functional, organism-based
# [13] = system: Influenza A virus; experiment: Antiviral activity against Influenza A virus A/FM/1/47 infected in MDCK cells incubated for 1 hr by MTT assay; assay type: functional, organism-based; settings: A/FM/1/47, MDCK
# [14] = system: RAW264.7; experiment: Anti-inflammatory activity against mouse RAW264.7 cells assessed as reduction in LPS induced TNF alpha level at 1 ug/ml by ELISA method; assay type: functional; settings: dose 1 µg/ml
# [15] = system: Influenza B virus; experiment: Antiviral activity against Influenza B virus 699[…] clinical isolate infected in MDCK cells incubated for 1 hr by MTT assay; assay type: functional, organism-based
Compound,CC50 [1],IC50 [2],IC50 [3],IC50 [4],selectivity ratio [5],CC50 at 1 h [6],IC50 [7],Activity [8],IC50 [9],Activity [10],Activity [11],IC50 [12],IC50 [13],Activity [14],IC50 [15]
CC(C)CCC[C@@H](C)[C@H]1CC[C@H]2[C@@H]3CC=C4C[C@@H](OC(=O)CN[C@@H](CCCCN)C(=O)N[C@@H](CCCCN)C(=O)N[C@@H](Cc5c[nH]c6ccccc56)C(=O)N[C@@H](CCCCN)C(N)=O)CC[C@]4(C)[C@H]3CC[C@]12C,39.1 µM,> 10 µM,> 5 µM,> 10 µM,30.5,44.3 µM,1610 nM,,,,,,,,
CCOC(=O)c1c(CSc2ccccc2)n(C)c2cc(Br)c(O)c(CN(C)C)c12.Cl,,,,,91.4,32.9 µM,360 nM,400.5 pg/mL,1180 nM,206.5 pg/mL,294.9 pg/mL,1560 nM,1450 nM,320.5 pg/mL,410 nM
NCCCC[C@H](NC(=O)[C@H](Cc1c[nH]c2ccccc12)NC(=O)[C@H](CCCCN)NC(=O)[C@H](CCCCN)NC(=O)Cc1ccc2ccccc2c1)C(=O)O ({Acetyl(2-naphthyl)}-KKWK-OH),200 µM,,,,,> 200 µM,4040 nM,,,,,,,,
